Experimental data as given in US20170267679A1, “[…] FUSED PYRIMIDINE COMPOUNDS AS INHIBITORS OF p97 COMPLEX” (Cleave Biosciences, Inc., priority 2016, published 2017).

Columns and labels:
p97 = p97 (Homo sapiens, UniProt P55072); assay: p97 ADP Glo ATPase biochemical assay; settings: 20 nM p97, 20 uM ATP, 37 deg C, 15 min; read-out: 97 ADP Glo Assay: IC50
Procedure: The ATPase assay is performed according the following protocol: Purified enzyme (20 nM p97), substrate (20 μM ATP) and a dose titration of compounds are mixed in buffer (50 mM TRIS pH 7.5, 20 mM MgCl2, 0.02% TX-100, 1 mM DTT, 0.2% (v/v) glycerol) and incubated at 37° C. for 15 minutes. The reaction is terminated and the level of product generated is measured using the ADP Glo Assay Kit (Promega, Madison Wis.). Plotting product generated versus compound concentration and using a four-parameter fit model generates an IC50 value for each compounds.
The p97 assay is an initial screening assay used to determine inhibitory activity of the compounds of the invention against the p97 complex. As discussed above, inhibition of activity of the p97 proteosome complex can enable apoptosis and cause elimination of neoplastic cells (cancer cells). The method follows that of Christianson in Nat. Cell Biol., (2011) 14:93.
Assay Buffer is a mixture of 50 mM TRIS pH 7.5, 20 mM MgCl2, 0.02% TX-100, 1 mM DTT and 0.2% (v/v) Glycerol. The well plate is Platetype: Corning 3674, 384 w plate. The identification kit is an ADP glo kit (Promega): stop buffer, detection reagent.
Serial dilute compound in DMSO in a 1:3.33-fold 10 point serial dilution.
in each well of 384 w plate add the following reagents:
0.5 μL compound serial diluted in DMSO (Final Conc. 10%)
2 μL ATP (Final Conc.=20 uM, diluted in assay buffer)
2.5 μL p97 (Final Conc.=20 nM, diluted in assay buffer)
Incubate at 37 deg C. for 15 min.
Add 5μ of stop buffer, incubate at RT for 40 min.
Add 10 μL of detection reagent, incubate at RT for 30 min.
Read luminescence on Envision plate reader.
Normalize luminescence data using no enzyme (full inhibition) and no compound (no inhibition) controls. Plot normalized luminescence data against log-transformed concentration values and fit to a sigmoidal curve to determine IC50 values (done in Collaborative Drug Discovery software).

A549 cells = assay: A549 CellTitre Glo viability assay; format: cell-based; settings: Homo sapiens, 72 hr incubation
Excerpt: Anti-tumor effects are monitored in cultured cancer cells after several days of compound treatment. The cell titer glo assay (Promega) measures the amount of ATP present as a proxy for cellular viability. Cellular counting is done using high-content microscopy followed by image analysis. A hanging drop 3D-culture system (3D Biomatrix) is used followed by cell titer glo to measure growth in a tumor-like environment.
The cellular assay provides information about the anti-neoplastic activity of the compounds of the invention. The compounds are tested against cultured cancer cells to determine whether or not the compounds of the invention are capable of intersecting with cancer cells to minimize or eliminate such cells. The assay involves establishing colonies of such cells and then treating them with the test compound under specified conditions and analysis regima to determine results.
(§1) Plate 25 μL of A549 cells in every well of 384-well plate using multidrop. • Two (2) black plates for IF at 2500 cells/well • Let plate sit at room temp for 10-15 minutes prior to putting in incubator to allow cells to stick in middle of plate. • One (1) white plate for viability at 500 cells/well.
(§2) Treat Cells: • Serial dilute compounds with a 10 point 2-fold serial dilution in DMSO to make 250× stock compound solution • Dilute compounds 1:125 in cell culture media to make a 2× solution Add 25 μL of dilution compounds to cell plates in well duplicates
Put cells back in incubator (6 hr incubation for black plates, 72 hr incubation for white plates).
Thaw an aliquot of frozen cell titer glo (Promega G7572) at room temperature.
Add 45 mL of NaCl/PBS solution to 5 ml of cell titer glo (10×).
Remove white plates from incubator, leave at room temp for 30 minutes.
Add 25 μL of diluted cell titer glo to each well.
Shake plate for >1 minute.
Incubate plate for >5 minutes to stabilize luminescence.
Read luminescence on plate reader

K48-Ub in A549 cells = assay: A549 K48 cell intensity (K48 poly-ubiquitin immunofluorescence); format: cell-based; settings: Homo sapiens, 6 hr incubation
Procedure: Image-analysis is used to generate quantitative data from these assays that can be fit to a four-parameter sigmoid curve to derive IC50 values. Substrates of the ubiquitin-proteasome system, such as p53, are monitored after tumor cell lines are incubated with compounds for several hours. Accumulation of these proteins indicates an inhibition of proteasome-mediated degradation. Accumulation of lysine-48 chain linkage of poly-ubiquitin is also monitored by immunofluorescence as an indicator of ubiquitin-proteasome system inhibition. Both LC3 and SQSTM1 are mediators of autophagy. The localization and amounts of these proteins are monitored by immunofluorescence and report on the activity and inhibition of autophagy in response to p97 inhibition.
as §1
as §2, with “duplicates Put cells back in incubator (6 hr incubation for black plates, 72 hr incubation for white plates).” for “duplicates”
Incubate cells in black plates with compound at 37 deg C. for 6 hrs. add 15 μL of 16% Paraformaldehyde (PFA) directly into media of each well, • incubate at room temp for 5 min, flick plate and wash in 50 µL of PBS block in 50 μL of Blocking Buffer for 30 minutes (can go up to several hours) • Blocking buffer: 1×PBS, 1% BSA, 0.3% Triton-X100, Hoechst (1:10,000) incubate in 25 μL of primary antibody in blocking buffer at 4 deg C. over night […]
Secondary Antibodies: • AlexaFluor488 Goat anti-Rabbit 1:2,000 (Life Tech A11008) • AlexaFluor555 Goat anti-Mouse 1:2,000 (Life Tech A21422) wash black plates 3× in 50 μL PBS (˜5 min each) • incubate in 25 μL of secondary antibody (1:2,000) in blocking buffer for 1-2 hrs at room temp (alexafluor488-anti-Rabbit/alexafluor555-anti-Mouse) Image plates in high content microscope with 405 nm, 488 nm and 555 nm filters Data Analysis: • Nuclear counts and cellular intensities of each markers are measured using Hoechst as a nuclear marker with an automated image analysis protocol using Matlab software (Math Works)

Caco-2 cell monolayer = settings: pH 7.4, range over 12 inter-day experiments

Sequence of p97 (P55072 whole entry): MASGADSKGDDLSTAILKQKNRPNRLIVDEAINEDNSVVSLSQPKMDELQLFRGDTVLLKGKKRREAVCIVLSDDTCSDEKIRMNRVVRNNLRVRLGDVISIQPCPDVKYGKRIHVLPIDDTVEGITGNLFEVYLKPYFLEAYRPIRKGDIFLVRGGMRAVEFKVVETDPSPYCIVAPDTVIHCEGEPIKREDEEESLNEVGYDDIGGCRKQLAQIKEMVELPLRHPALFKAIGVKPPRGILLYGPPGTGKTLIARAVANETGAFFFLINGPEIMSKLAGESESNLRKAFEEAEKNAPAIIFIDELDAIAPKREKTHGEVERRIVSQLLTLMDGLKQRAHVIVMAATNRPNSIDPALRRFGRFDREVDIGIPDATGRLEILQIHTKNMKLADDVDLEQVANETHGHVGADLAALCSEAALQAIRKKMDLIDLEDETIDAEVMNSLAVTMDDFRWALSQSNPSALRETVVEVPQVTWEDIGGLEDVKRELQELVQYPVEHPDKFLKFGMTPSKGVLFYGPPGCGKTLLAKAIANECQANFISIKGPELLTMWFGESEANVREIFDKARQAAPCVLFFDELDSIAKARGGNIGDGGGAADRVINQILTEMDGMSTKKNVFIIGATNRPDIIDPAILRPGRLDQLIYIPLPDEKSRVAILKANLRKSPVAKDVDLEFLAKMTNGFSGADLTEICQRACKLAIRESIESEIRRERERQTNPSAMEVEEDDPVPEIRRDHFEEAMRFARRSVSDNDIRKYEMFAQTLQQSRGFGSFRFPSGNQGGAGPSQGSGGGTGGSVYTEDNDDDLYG

| Compound | IC50 (p97) [nM] | IC50 (A549 cells) [nM] | IC50 (K48-Ub in A549 cells) [nM] | Peff in pH 7.4 Caco-2, A B, Range (Caco-2 cell monolayer; A to B) | Peff in pH 7.4 Caco-2, B A, Range (Caco-2 cell monolayer; B to A) |
| --- | --- | --- | --- | --- | --- |
| Cc1cc2c(C(N)=O)cccc2n1-c1nc(NCc2ccccc2)c2c(n1)C1CCCCN1CC2 (centres unmarked) [Compound 001, 1-(4-(benzylamino)-6,8,9,10,11,11a-hexahydro-5H-pyrimido[4,5-a]quinolizin-2-yl)-2-methyl-1H-indole-4-carboxamide] | 16 | 1340 | 736 |  |  |
| Cc1cc2c(C(N)=O)cccc2n1-c1nc(NCc2ccccc2)c2c(n1)C1CCCN1CC2 (centres unmarked) [Compound 002, 1-(4-(benzylamino)-5,6,8,9,10,10a-hexahydropyrimido[5,4-g]indolizin-2-yl)-2-methyl-1H-indole-4-carboxamide] | 15 | 2690 | 6620 |  |  |
| Cc1cc2c(C(N)=O)cccc2n1-c1nc2c(c(NCc3ccccc3)n1)CN1CCCCC1C2 (centres unmarked) [Compound 003, 1-(4-(benzylamino)-7,8,9,10,10a,11-hexahydro-5H-pyrimido[4,5-b]quinolizin-2-yl)-2-methyl-1H-indole-4-carboxamide] | 25 | 2340 | 642 |  |  |

The next lines start with the values.

| IC50 (p97) [nM] | IC50 (A549 cells) [nM] | IC50 (K48-Ub in A549 cells) [nM] | Peff in pH 7.4 Caco-2, A B, Range (Caco-2 cell monolayer; A to B) | Peff in pH 7.4 Caco-2, B A, Range (Caco-2 cell monolayer; B to A) | Compound |
| --- | --- | --- | --- | --- | --- |
| 19 | 1120 | 273 |  |  | Cc1cc2c(C(N)=O)cccc2n1-c1nc2c(c(NCc3ccccc3)n1)CN1CCCC1C2 (centres unmarked) [Compound 004, 1-[4-(Benzylamino)-5,7,8,9,9a,10-hexahydropyrimido[5,4-f]indolizin-2-yl]-2-methyl-indole-4-carboxamide] |
|  |  |  | 18.50-36.80 x E−6 cm/sec | 16.30-31.40 x E−6 cm/sec | CC(C)NCC(O)COc1cccc2ccccc12 (centres unmarked) [Propranolol] |
